Literature values in patent publication US10783985B2, “Physics-based computational methods for predicting compound solubility” (Schrödinger, LLC, priority 2015, dated 2020).

Settings: for Expt. Solubility: Table 1, experimentally determined
[1] = experimental, Ilevbare and Taylor 2013

**Q.** With CC(=O)Nc1ccc(O)cc1 [acetaminophen] as the compound, how does the aqueous solubility (experimental, NIH Pubchem database, printed conversion of the mg/L value) read?
**A.** Its aqueous solubility is ~36,000 μM.

**Q.** Which “Expt. Solubility” value does the source give for Clc1ccccc1C(c1ccccc1)(c1ccccc1)n1ccnc1 [clotrimazole] here?
**A.** The value was 1.16 µM.

**Q.** For CN1CCN(C2=Nc3cc(Cl)ccc3Nc3ccccc32)CC1 [clozapine], which “Expt. Solubility” value is on record?
**A.** Its value is 26.93 µM.

**Q.** Which results are given for CCOC(=O)C1=C(C)NC(C)=C(C(=O)OC)C1c1cccc(Cl)c1Cl (stereo not shown) [felodipine]?
**A.** "amorphous" solubility [1]: 22.1 µM; "equilibrium" solubility [1]: 2.5 µM; solubility class (BCS), experimental data (felodipine comparison data): low solubility (BCS Class II/IV)

**Q.** Which “Expt. Solubility” value does the source give for COc1ccc2c(c1)c(CC(=O)O)c(C)n2C(=O)c1ccc(Cl)cc1 [indomethacin] here?
**A.** Its value is 8.38 µM.
